{
  "source": "paper PMC2670829",
  "about": "(BMC Pharmacology, 2009)",
  "key": {"[1]": {"tested_on": "subcutaneous Tsc2^-/- tumors (NTC/T2null cells)", "assay": "Subcutaneous Tsc2-/- tumor model in nude mice, atorvastatin, doxycycline and rapamycin study", "settings": "for Efficacy on tumor growth and survival, in words / Median survival: doxycycline 10 mg/kg IP 5 days per week, rapamycin 8 mg/kg IP 3 days per week; for Median survival: time to tumor volume ~3000 mm^3, atorvastatin 20 mg/kg IP, start at ~50 mm^3", "procedure": "(§1) Nude mice (strain CD-1nuBR, up to 6–8 weeks old) were obtained from Charles River Laboratories, Inc. (Wilmington, Massachusetts) and injected subcutaneously on the dorsal flank with 2.5 million NTC/T2null (Tsc2^-/-, Trp53^-/-) cells. As soon as tumors became visible, they were measured Monday through Friday using calipers. Tumor volumes were calculated using the formula: length × width × width × 0.5 [43]. All mice were euthanized once tumors reached ~3000 mm^3 in accordance with institutional animal care guidelines. Please note that survival analysis is done using time to tumor volume of ~3000 mm^3, because this is when animals are euthanized. […] Statistical comparison of tumor volume measurements between groups is done on the last day that relevant groups had at least four tumor measurements.\nA cohort of 48 CD-1 nude mice was injected with NTC/T2null (Tsc2^-/-, Trp53^-/-) cells.\nAll drug treatments started when tumors reached a volume of ~50 mm^3 (day 1 of treatment), regardless of treatment schedule, and animals were euthanized when tumors reached a volume of ~3000 mm^3. If a volume of 40 mm^3 was reached on Thursday or Friday, treatment began that day. Otherwise, treatment was started on the day tumor volume was ≥50 mm^3.\nMice being treated with doxycycline were treated daily Monday through Friday with 200 μl of a 1.5 mg/ml (10 mg/kg) IP injection. […] All drug doses were calculated based on an average weight of 30 g per mouse. […] Doxycycline powder was obtained from Sigma-Aldrich Co. (St. Louis, MO) and was diluted in sterile PBS."}, "[2]": {"settings": "in words"}, "[3]": {"tested_on": "subcutaneous Tsc2^-/- tumors (NTC/T2null cells)", "assay": "Subcutaneous Tsc2-/- tumor model in nude mice, sorafenib and rapamycin study", "settings": "rapamycin 8 mg/kg IP, sorafenib 60 mg/kg gavage, 5 days per week", "procedure": "as §1\nTwo mice were excluded from the analyses. […] All drug doses were calculated based on an average weight of 30 g per mouse."}, "[4]": {"tested_on": "kidney cystadenomas in Tsc2^+/- mice", "assay": "Kidney tumor (cystadenoma) score by quantitative histopathology in Tsc2+/- mice", "type": "in vivo, mouse", "settings": "for Tumor score per kidney (ave. ± Std. Err.): daily IP treatment at 6–7 and 12–13 months (rapamycin 8 mg/kg, IFN-g 20,000 IU), weekly rapamycin 16 mg/kg at 7–12 months", "description": "The Tsc2^+/- mouse is heterozygous for a deletion of exons 1–2 as previously described. The Tsc2^+/- cohort used in this experiment was obtained by crossing these Tsc2^+/- mice with wild-type C57BL/6 mice. In order to avoid bias due to strain variation, sibling littermates were used as controls. Tsc2^+/- mice were assigned to one of three cohorts: rapamycin 8 mg/kg IP, rapamycin 8 mg/kg plus IFN-g 20,000 units IP, and untreated. All mice receiving drug therapy were treated in three consecutive parts: In part one, mice were treated daily (5 days/week, Monday through Friday) for one month (6 months ≤ age < 7 months) with their assigned treatments by intraperitoneal injection (IP). In part two, all mice in both the rapamycin and rapamycin plus IFN-g cohorts stopped their assigned daily treatment and started a weekly 16 mg/kg maintenance dose of rapamycin for five months (7 months ≤ age < 12 months). In the final part, all mice restarted the same treatment they received from 6–7 months of age for one final month (see Table 1). The two month-long periods of daily rapamycin treatment before and after the maintenance treatment were included so that we can compare the results of this study with our previous preclinical studies that also include a total of two months of daily treatment without the weekly maintenance treatment phase. All mice were euthanized at 13 months of age according to institutional animal care guidelines. We evaluated kidney disease at 13 months in this experiment instead of 12 months in prior studies because kidney disease severity is likely to be higher in older mice, and we reasoned that this may allow us to better detect small differences between treatment groups. The severity of kidney disease was determined in all animals using quantitative histopathology as described below.\nRapamycin powder was obtained from LC Laboratories (Woburn, MA) and a 20 mg/ml stock of rapamycin was made in ethanol (stored at -20°C for up to one week). The stock solution was diluted to 1.2 mg/ml in vehicle (0.25% PEG, 0.25% Tween-80) for the 8 mg/kg dose and diluted to 2.4 mg/ml in vehicle for the 16 mg/kg dose. Murine IFN-g (R&D Systems, Minneapolis, MN) was diluted to 100,000 units/ml in sterile phosphate buffered saline (PBS) containing 0.1% mouse serum albumin (Sigma-Aldrich, Inc., St. Louis, MO) and stored at 4°C. […]\nFor histological quantification of kidney cystadenomas, each kidney was fixed and sliced at 1 mm intervals. […] All slides were coded to keep scoring blinded, and all cystadenomas were counted, measured, and scored according to the scale shown in Table 2 by two blinded researchers (CW and AN). Cystadenomas that extended into more than one 1 mm kidney slice were counted only once and scored according to the maximum diameter. […]"}, "[5]": {"settings": "mouse, in vivo", "description": "Animal behavior and health were monitored daily, and animals were weighed at the start of the study and at the time of necropsy. […] All mice from rapamycin treated cohorts were euthanized 24 hours after the last rapamycin treatment upon reaching the endpoint tumor volume. Upon sacrifice, whole blood and tumor were harvested for drug level testing."}, "[6]": {"settings": "no reference given; cited from earlier work"}, "in vivo": {"assay": "in vivo", "settings": "mouse, intraperitoneal, 8 mg/kg"}, "[7]": {"tested_on": "kidney cystadenomas in Tsc2^+/- mice", "settings": "cited from earlier work; for Percent decrease in tumor score per kidney with treatment / Tumor score per kidney (ave. ± Std. Err.): analysis at 12 months, ref Messina et al., 2007; for Tumor score per kidney (ave. ± Std. Err.): CCI-779 8 mg/kg per day, 5 days/week"}, "[8]": {"settings": "mean ± standard error, rapamycin 8 mg/kg 3 days per week, atorvastatin 20 mg/kg, doxycycline 10 mg/kg 5 days per week, IP"}, "[9]": {"settings": "8 mg/kg daily × 2 months, total 9.6 mg per mouse, ref Messina et al. 2007"}},
  "note": "Where “and” joins values, the source holds several entries; their conditions need not be identical. Equal values may be shown once. Read-outs that look alike come from different tables or passages of the source. Marks after values point to notes of the source that are not given here.",
  "data": [
    {"molecule": "CC(C)c1c(C(=O)Nc2ccccc2)c(-c2ccccc2)c(-c2ccc(F)cc2)n1CC[C@@H](O)C[C@@H](O)CC(=O)O", "note": "[Atorvastatin]", "values": [
      {"measurement": "Efficacy on tumor growth and survival, in words", "setting": "[1]; atorvastatin 20 mg/kg", "result": "did not reduce tumor growth or improve survival as a single agent"},
      {"measurement": "Day 26, average tumor volume", "setting": "[1]; [8]", "result": "1931 ± 298", "unit": "mm^3"},
      {"measurement": "Median survival", "setting": "[1]", "result": 32.5, "unit": "days"}
    ]},
    {"molecule": "CNC(=O)c1cc(Oc2ccc(NC(=O)Nc3ccc(Cl)c(C(F)(F)F)c3)cc2)ccn1", "note": "[Sorafenib]", "values": [
      {"measurement": "Effect on the metabolism of rapamycin (rapamycin levels in combination cohorts)", "setting": "[2]", "result": "did not significantly affect the metabolism of rapamycin"},
      {"measurement": "Day 16, average tumor volume", "setting": "[3]; mean ± standard error", "result": "2209 ± 499", "unit": "mm^3"},
      {"measurement": "Efficacy on tumor growth and survival, in words", "setting": "[3]", "result": "not effective"}
    ]},
    {"molecule": "C[C@H]1c2cccc(O)c2C(=O)C2=C(O)[C@]3(O)C(=O)C(C(N)=O)=C(O)[C@@H](N(C)C)[C@@H]3[C@@H](O)[C@@H]21", "note": "[Doxycycline]", "values": [
      {"measurement": "Effect on the metabolism of rapamycin (rapamycin levels in combination cohorts)", "setting": "[2]", "result": "did not significantly affect the metabolism of rapamycin"},
      {"measurement": "Efficacy on tumor growth and survival, in words", "setting": "[1]; atorvastatin 20 mg/kg", "result": "not effective as either a single agent or in combination with rapamycin"},
      {"measurement": "Day 26, average tumor volume", "setting": "[1]; [8]", "result": "1749 ± 352", "unit": "mm^3"},
      {"measurement": "Median survival", "setting": "[1]", "result": 28, "unit": "days"}
    ]},
    {"molecule": "CO[C@H]1C[C@@H]2CC[C@@H](C)[C@@](O)(O2)C(=O)C(=O)N2CCCC[C@H]2C(=O)O[C@H]([C@H](C)C[C@@H]2CC[C@@H](O)[C@H](OC)C2)CC(=O)[C@H](C)/C=C(\\C)[C@@H](O)[C@@H](OC)C(=O)[C@H](C)C[C@H](C)/C=C/C=C/C=C/1C", "note": "[Rapamycin]", "values": [
      {"measurement": "Score of kidney lesion subtypes (cystic, pre-papillary, papillary, solid)", "setting": "[4]; 13 months, in words, no statistics", "result": "reduced the score of all subtypes of kidney lesions"},
      {"measurement": "Tumor score per kidney (ave. ± Std. Err.)", "setting": "[4]; analysis at 13 months", "result": "0.83 ± .018"},
      {"measurement": "Tumor score per kidney (ave. ± Std. Err.)", "setting": "[4]; analysis at 13 months, listed as rapamycin", "result": "0.83 ± 0.18"},
      {"measurement": "Percent decrease in tumor score per kidney with treatment", "setting": "[4]; vs untreated, analysis at 13 months, daily treatment 6–7 and 12–13 months, weekly rapamycin 16 mg/kg 7–12 months", "result": 94.5, "unit": "%"},
      {"measurement": "Weight at Necropsy", "setting": "[5]", "result": "35.6 ± 0.6", "unit": "g"},
      {"measurement": "Weight at Start", "setting": "[5]", "result": "36.0 ± 0.6", "unit": "g"},
      {"measurement": "Weight gain", "setting": "[5]", "result": "-0.4 ± 0.6", "unit": "g"},
      {"measurement": "Weight gain, in words", "setting": "[5]", "result": "failed to gain weight"},
      {"measurement": "Trough levels for standard rapamycin dosing in humans", "setting": "[6]", "result": "3 to 20", "unit": "ng/mL"},
      {"measurement": "concentration at 24 h", "setting": "in vivo; CD-1 nude, tumor", "result": "258 ± 91.6", "unit": "ng/mL"},
      {"measurement": "concentration at 24 h", "setting": "in vivo; nude, whole blood", "result": "42.9 ± 24.7", "unit": "ng/mL"},
      {"measurement": "Day 26, average tumor volume", "setting": "[1]; [8]", "result": "544 ± 110", "unit": "mm^3"},
      {"measurement": "Day 42, average tumor volume", "setting": "[1]; [8]", "result": "1784 ± 643", "unit": "mm^3"},
      {"measurement": "Median survival", "setting": "[1]", "result": 41.5, "unit": "days"},
      {"measurement": "Day 16, average tumor volume", "setting": "[3]; mean ± standard error", "result": "284 ± 52", "unit": "mm^3"},
      {"measurement": "Day 43, average tumor volume", "setting": "[3]; mean ± standard error", "result": "2499 ± 222", "unit": "mm^3"},
      {"measurement": "Day 44, average tumor volume", "setting": "[3]; mean ± standard error", "result": "2607 ± 247", "unit": "mm^3"},
      {"measurement": "Median survival", "setting": "[3]; time to tumor volume ~3000 mm^3, start at ~150 mm^3", "result": 46, "unit": "days"}
    ]},
    {"molecule": "CO[C@H]1C[C@@H]2CC[C@@H](C)[C@@](O)(O2)C(=O)C(=O)N2CCCC[C@H]2C(=O)O[C@H]([C@H](C)C[C@@H]2CC[C@@H](OC(=O)C(C)(CO)CO)[C@H](OC)C2)CC(=O)[C@H](C)/C=C(\\C)[C@@H](O)[C@@H](OC)C(=O)[C@H](C)C[C@H](C)/C=C/C=C/C=C/1C", "note": "[CCI-779, temsirolimus]", "values": [
      {"measurement": "% Reduction in kidney tumors (kidney tumor number)", "setting": "[7]; 4 mg/kg 3 times a week × 3 months, total 4.32 mg per mouse, ref Lee et al. 2005", "result": "84% and 83.6%**"},
      {"measurement": "% Reduction in kidney tumors (kidney tumor number)", "setting": "[7]; [9]", "result": 64, "unit": "%"},
      {"measurement": "% Reduction in kidney tumors (kidney tumor score)", "setting": "[7]; [9]", "result": 63, "unit": "%*"},
      {"measurement": "Percent decrease in tumor score per kidney with treatment", "setting": "[7]; CCI-779 8 mg/kg per day at 6–8 months", "result": 39.7, "unit": "%"},
      {"measurement": "Percent decrease in tumor score per kidney with treatment", "setting": "[7]; CCI-779 8 mg/kg per day at 10–12 months, 8 mg/kg/day", "result": 64.4, "unit": "%"},
      {"measurement": "Tumor score per kidney (ave. ± Std. Err.)", "setting": "[7]; at 6–8 months", "result": "6.00 ± 1.01"},
      {"measurement": "Tumor score per kidney (ave. ± Std. Err.)", "setting": "[7]; at 10–12 months", "result": "3.54 ± 0.76"}
    ]}
  ]
}
